Laboratory results as given in paper PMC7612441 (The Febs Journal, 2021).

Experiments:
NUDT9 = target: T1, NUDT9 (Homo sapiens, UniProt Q9BW91); assay: isothermal titration calorimetry, one-site fit; type: binding; settings: Ca2+ (5 mM CaCl2) as cofactor, no hydrolysis; 20 mM HEPES pH 7.5, 150 mM NaCl, 20 °C
T1 sequence (Q9BW91 59-350): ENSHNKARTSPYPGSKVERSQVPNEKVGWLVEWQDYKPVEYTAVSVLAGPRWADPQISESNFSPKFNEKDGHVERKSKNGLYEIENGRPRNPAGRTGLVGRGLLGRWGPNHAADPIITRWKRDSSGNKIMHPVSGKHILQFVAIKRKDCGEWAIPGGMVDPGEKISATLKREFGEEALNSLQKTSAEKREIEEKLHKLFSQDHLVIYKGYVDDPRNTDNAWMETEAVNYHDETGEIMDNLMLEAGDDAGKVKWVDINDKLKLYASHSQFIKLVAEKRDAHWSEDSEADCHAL

NUDT9trC RIL = target: T2, NUDT9trC RIL (Homo sapiens, UniProt Q9BW91, E230I/F231L); assay: isothermal titration calorimetry, one-site fit; type: binding; settings: Mg2+ (5 mM MgCl2) as cofactor; 20 mM HEPES pH 7.5, 150 mM NaCl, 20 °C; catalytically inactive mutant
T2 sequence (Q9BW91 59-339 E230I/F231L): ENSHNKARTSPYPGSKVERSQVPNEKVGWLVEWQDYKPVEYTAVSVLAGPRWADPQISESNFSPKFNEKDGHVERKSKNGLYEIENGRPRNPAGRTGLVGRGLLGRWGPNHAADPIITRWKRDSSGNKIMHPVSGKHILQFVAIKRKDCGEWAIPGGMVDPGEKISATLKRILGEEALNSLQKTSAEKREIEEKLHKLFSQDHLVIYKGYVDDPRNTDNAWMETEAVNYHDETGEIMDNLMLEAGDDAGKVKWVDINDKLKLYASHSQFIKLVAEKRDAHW

Row | Kd (NUDT9) | Kd (NUDT9trC RIL) | Compound
1 | 9 ± 2 nM | 12 ± 7 nM | Nc1ncnc2c1ncn2[C@H]1C[C@H](O)[C@@H](COP(=O)(O)OP(=O)(O)OC[C@H]2OC(O)[C@H](O)[C@@H]2O)O1 (stereo partly shown) [2′‐deoxy‐ADPR]
2 | 12 ± 4 nM | 16 ± 4 nM | Nc1ncnc2c1ncn2[C@@H]1O[C@H](COP(=O)(O)OP(=O)(O)OC[C@H]2OC(O)[C@H](O)[C@@H]2O)[C@@H](O)[C@H]1O (stereo partly shown) [ADPR]
